The values below come from publication PMC6544596 (Drugs in R&D, 2019).

Structures are written as SMILES. Where two headings read alike, the source gives them in different places.

Data set [1] concerns APP mice. Briefly: Aβ and tau levels in transgenic APP mice. It counts as in vivo, mouse. Particulars: 3 consecutive weeks; for Insoluble human Aβ vs DMSO (in words): p < 0.01, 0.001.
Data set [2] can be described thus: Pharmacokinetics of a single intraperitoneal dose in mice. Particulars: for CNS penetrance (in words): Fig. 8 summary of kinetics profiling in animal models; for time after administration at which agents are completely washed out of the brain: IP administration; for Tmax: brain and plasma; for Kp: brain/plasma. The class given is in vivo, C57BL/6J mice.
Data set [3] relates to Abl. The note with it: read-out: IC50 Abl; cited from earlier work.
For data set [4], the system named is PDGFR-β. The note with it: cited from earlier work; for IC50: read-out: IC50 PDGFR-β.
In data set [5] the test system is PDGFR-α. Particulars: cited from earlier work.
Data set [6] has as its system SRC. Particulars: cited from earlier work; for IC50: read-out: IC50 SRC.
The test system of data set [7] is A53T mice. Briefly: α-Synuclein, HVA and dopamine levels in transgenic A53T mice. The class given is in vivo, mouse.
Data set [8] has as its system c-Kit. Particulars: read-out: IC50 c-Kit; cited from earlier work.
For data set [9], the system named is DDR1/2. The note with it: read-out: IC50 DDR1/2; cited from earlier work.
Data set [10] relates to DDR2. The note with it: read-out: IC50 DDR2; cited from earlier work.
Data set [11] has as its system rat B35 neuroblastoma transfected with Aβ42. Briefly: Aβ42 ELISA in Aβ42-transfected B35 neuroblastoma cells. It counts as cell-based. The note with it: 10 µM, 24 h.
Where [12] appears, read: 4- to 7-month-old APP mice, 10 mg/kg IP.
[13] abbreviates: male, C57BL/6J, mouse, ip, 10 mg/kg.
Setting [14] is: male, C57BL/6J, mouse, plasma, ip, 10 mg/kg.
Where [15] appears, read: 12-month-old A53T mice, 5 mg/kg IP once daily, 3 consecutive weeks.
The mark [16] stands for this setting: single IP dose 1.25 mg/kg, mice.
The mark [17] stands for this setting: male, C57BL/6J, mouse, ip, 5 mg/kg.
Where [18] appears, read: male, C57BL/6J, mouse, plasma, ip, 5 mg/kg.

`Cc1cn(-c2cc(NC(=O)c3ccc(C)c(Nc4nccc(-c5cnccn5)n4)c3)cc(C(F)(F)F)c2)cn1` [Radotinib]: in [1] (setting [12]), the “effect on phosphorylated tau levels (in words)” value was “no effect”, the “effect on total tau levels (in words)” value is recorded as “no effect” and the “Insoluble human Aβ vs DMSO (in words)” value is reported as “significantly decreased”. Besides, in [2], the “CNS penetrance (in words)” value was “medium-to-high”. Further, the “time after administration at which agents are completely washed out of the brain” value (“time after administration” below) in data set [2] (mice) is 4 to 5 h. Also, in data set [2] (setting [13]), the time of peak concentration (Tmax) turned out to be 1 h and the Kp came to 0.05. Besides, in data set [2] (setting [14]), the AUC came to 83.3 µM·h and the Cmax stood at 24.4 µM. In addition, in data set [2] (single IP dose 10 mg/kg, mice), the “AUC Brain” value was found to be 1.839 and the “C max Brain” value amounted to 1.004 µM. In addition, the IC50 in data set [3] is 34 nM. The IC50 in [4] is 130 nM. Moreover, in data set [5] (read-out: IC50 PDGFR-α), the IC50 is 75.5 nM. For the same compound, in [6], the “inhibition of Src” value is recorded as “do not appear to inhibit Src” and the IC50 was greater than 2000 nM. In addition, in [7] (setting [15]), the “α-syn levels, ELISA, compared to DMSO” value is “no difference” and the “α-syn levels, Western blot, compared to DMSO” value is on record as “no change”. Further, the IC50 in [8] was greater than 1300 nM. In data set [9], the IC50 was less than 180 nM.

Take `Oc1cccc(Nc2ccnc3cc(-c4cccc(CN5CCOCC5)c4)sc23)c1` [LCB-03-0110]: the Cmax was 2.35 µM in [2] (read-out: C max Plasma, single IP dose 1.25 mg/kg, mice) and 3.65 µM in data set [2] (read-out: C max Plasma, single IP dose 2.5 mg/kg, mice). Besides, the “AUC Brain” value in [2] (setting [16]) is 0.2302; in data set [2] (single IP dose 2.5 mg/kg, mice) it was 0.3152. For the same compound, the “AUC Plasma” value in [2] (setting [16]) is given as 2.805; in data set [2] (single IP dose 2.5 mg/kg, mice) it was 6.482. The “C max Brain” value in data set [2] (setting [16]) was determined as 0.245 µM; in data set [2] (single IP dose 2.5 mg/kg, mice), 0.445 µM. The “Ratio (%) brain to plasma” value in [2] (setting [16]) stood at 10%; in data set [2] (single IP dose 2.5 mg/kg, mice), 12%. The “T max Time” value is given as 1 h in data set [2] (setting [16]) and 1 h in data set [2] (single IP dose 2.5 mg/kg, mice). The IC50 was greater than 1000 nM in data set [3]; 409 nM in [4]; 69 nM in [5] (read-out: IC50 PDGFR-α); 1.3 nM in data set [6]; 591 nM in [8]; 6 nM in data set [9].

With `Cc1ccc(NC(=O)c2ccc(CN3CC[C@H](N(C)C)C3)c(C(F)(F)F)c2)cc1Nc1nccc(-c2cncnc2)n1` [Bafetinib], in data set [1] (APP mice, 5 mg/kg IP), the “reduction of the level of soluble Aβ40 compared to DMSO” value came to 9%. The “reduction in the insoluble Aβ42 compared with DMSO” value in data set [1] (APP mice, 5 mg/kg IP, not significant) was 17%. In addition, the “total tau levels compared with DMSO-treated APP mice (in words)” value in data set [1] (APP mice, bafetinib 5 mg/kg or LCB 2.5 mg/kg IP) is listed as “significant reduction”. For the same compound, the “CNS penetrance (in words)” value in [2] is “high”. Besides, in data set [2] (mice), the “time after administration” value lay within 4 to 5 h. In data set [2] (setting [17]), the time to peak (Tmax) came out at 1 h and the Kp amounted to 0.12. In [2] (setting [18]), this compound had an AUC of 69.5 µM·h and a Cmax of 19.4 µM. Further, in data set [2] (single IP dose 5 mg/kg, mice), the “AUC Brain” value was 4.193 and the “C max Brain” value stood at 2.362 µM. For the same compound, in data set [3], the IC50 was 5.8 nM. Besides, the “affinity to PDGFRβ” value in data set [4] was “no affinity”. Besides, in [5] (read-out: IC50 to PDGFRα), the IC50 is 56 nM. Further, in data set [6], the “inhibition of Src” value is reported as “do not appear to inhibit Src” and the IC50 was 1700 nM. Also, the “levels of α-syn measured via ELISA (in words)” value in data set [7] (A53T mice, 10, 5 or 2.5 mg/kg IP daily) is given as “did not reduce”. Besides, the “ELISA homovanillic acid and dopamine measurements (in words)” value in [7] (A53T mice, bafetinib treatment IP daily) is “remain unchanged”. Moreover, the IC50 in data set [9] is 220 nM.

`COc1cc(Nc2c(C#N)cnc3cc(OCCCN4CCN(C)CC4)c(OC)cc23)c(Cl)cc1Cl` [Bosutinib]: in data set [2], the “CNS penetrance (in words)” value was “medium-to-high”. In addition, the “time after administration” value in data set [2] (mice) was […]. In data set [2] (setting [17]), the time of peak concentration (Tmax) was […] and the Kp turned out to be […]. In [2] (setting [18]), the exposure (AUC) is 51.7 µM·h and the Cmax amounted to 19.4 µM. Besides, in data set [2] (single IP dose 5 mg/kg, mice), the “AUC Brain” value is given as 1.996 and the “C max Brain” value was 0.918 µM. For the same compound, the IC50 in data set [3] is […]. Besides, in [6], the IC50 is […]. For the same compound, the IC50 in [9] was greater than 4900 nM.

For `Cc1cn(-c2cc(NC(=O)c3ccc(C)c(Nc4nccc(-c5cccnc5)n4)c3)cc(C(F)(F)F)c2)cn1` [Nilotinib], the IC50 in data set [10] is […]; in [3], […]; in data set [4] it was less than 60 nM; in data set [5] (read-out: IC50 PDGFR-α), less than 71 nM; in data set [9], less than 6 nM. Besides, in data set [1] (setting [12]), the “effect on total tau levels (in words)” value is given as “no effect”. Besides, the “reduction of phospho-tau (ser396) compared with DMSO” value in data set [1] (setting [12]) is 28%. The “Insoluble human Aβ vs DMSO (in words)” value in data set [1] (setting [12]) is listed as “significantly decreased”. In addition, the time of peak concentration (Tmax) in data set [2] (setting [13]) was found to be 1 h. This compound displayed an exposure (AUC) in data set [2] (setting [14]) of 174 µM·h. Besides, in data set [2] (setting [14]), the Cmax is 33.7 µM. Moreover, the “inhibition of Src” value in data set [6] was “do not appear to inhibit Src”. Further, in [11], the “Aβ42 (ELISA) in Aβ42-transfected B35 cells (in words)” value is given as “reduce Aβ42”.

As usually defined, the Tmax is the time from dosing to the highest level. By Kp is commonly meant tissue or fluid exposure divided by exposure in the circulation. As usually defined, the AUC is concentration integrated over time. High values mean more exposure, low ones less exposure.
